Data reported in ChEMBL document CHEMBL1157185, “Design and synthesis of benzofuranic derivatives as new ligands at the melatonin-binding site MT3” (Bioorg Med Chem, 2008).

Experiments:
[1] = target: Melatonin receptor type 1A (Homo sapiens, UniProt P48039); assay: Displacement of 2-[125I]iodomelatonin from human MT1 receptor expressed in HEK293 cells; format: cell-based
[2] = target: T1, Melatonin receptor type 1B (Homo sapiens, UniProt P49286); assay: Displacement of 2-[125I]iodomelatonin from human MT2 receptor expressed in HEK293 cells; format: cell-based
T1 sequence (P49286 whole entry): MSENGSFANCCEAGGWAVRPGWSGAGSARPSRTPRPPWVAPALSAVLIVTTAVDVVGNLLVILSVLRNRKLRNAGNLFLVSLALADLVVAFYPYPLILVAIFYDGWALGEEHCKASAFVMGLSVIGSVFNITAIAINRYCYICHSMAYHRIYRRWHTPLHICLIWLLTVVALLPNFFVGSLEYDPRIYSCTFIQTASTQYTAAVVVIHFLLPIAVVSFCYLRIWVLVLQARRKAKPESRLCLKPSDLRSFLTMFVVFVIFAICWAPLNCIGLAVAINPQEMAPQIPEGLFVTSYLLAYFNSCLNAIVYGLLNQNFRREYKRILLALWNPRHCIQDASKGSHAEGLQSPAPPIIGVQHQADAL

[3] = Inhibition of MT3 melatonin binding site from hamster brain membrane; parameters: species or system Cricetinae
[4] = Selectivity ratio, IC50 for human MT2 melatonin receptor to IC50 for hamster MT3 melatonin binding site
[5] = Selectivity ratio, IC50 for human MT1 melatonin receptor to IC50 for hamster MT3 melatonin binding site

Melatonin receptor type 1A, sequence (P48039 whole entry): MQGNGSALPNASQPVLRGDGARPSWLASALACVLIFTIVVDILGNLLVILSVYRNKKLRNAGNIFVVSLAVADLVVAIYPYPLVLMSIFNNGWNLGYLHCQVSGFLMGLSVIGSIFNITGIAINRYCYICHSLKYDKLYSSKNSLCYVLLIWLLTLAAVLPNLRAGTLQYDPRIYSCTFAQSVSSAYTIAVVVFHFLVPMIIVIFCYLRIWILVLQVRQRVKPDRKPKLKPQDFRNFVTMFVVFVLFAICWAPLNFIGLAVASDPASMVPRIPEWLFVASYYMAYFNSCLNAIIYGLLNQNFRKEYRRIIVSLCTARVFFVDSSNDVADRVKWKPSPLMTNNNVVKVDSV

CC(=O)NCCc1coc2ccc(C(N)=O)cc12
IC50 [1]: > 10 µM | IC50 [2]: 1 µM | IC50 [3]: 0.082 µM | Ratio IC50 [4]: 12 | Ratio IC50 [5]: > 122

COC(=O)c1ccc2occ(CCNC(=O)C(C)C)c2c1
IC50 [3]: 0.065 µM

COC(=O)Nc1ccc2occ(CCNC(=O)C3CC3)c2c1
IC50 [1]: 8.18 µM | IC50 [2]: 5.9 µM | IC50 [3]: 0.024 µM | Ratio IC50 [4]: 245 | Ratio IC50 [5]: 340

COC(=O)Nc1ccc2occ(CCNC(=O)C3CCCC3)c2c1
IC50 [1]: 5.32 µM | IC50 [2]: 5.32 µM

COC(=O)c1ccc2occ(CCNC(=O)C3CCCC3)c2c1
IC50 [1]: 3.88 µM | IC50 [2]: 0.389 µM | IC50 [3]: 0.018 µM | Ratio IC50 [4]: 21.6 | Ratio IC50 [5]: 215

COC(=O)Nc1ccc2occ(CCNC(C)=O)c2c1
IC50 [3]: 0.016 µM

COc1ccc2occ(CCNC(C)=O)c2c1
IC50 [3]: 0.064 µM

CNC(=O)c1ccc2occ(CCNC(=O)C3CCCC3)c2c1
IC50 [1]: > 10 µM | IC50 [2]: > 10 µM

COc1ccc2c(c(CCNC(C)=O)c(I)n2C)c1[N+](=O)[O-]
Ki [3]: 0.0003 µM

COc1cc2nc(N3CCN(C(=O)c4ccco4)CC3)nc(N)c2cc1OC [PRAZOSIN]
IC50 [3]: 0.0078 µM

NC(=O)c1ccc2occ(CCNC(=O)c3ccco3)c2c1
IC50 [1]: > 10 µM | IC50 [2]: > 10 µM | IC50 [3]: 0.067 µM | Ratio IC50 [4]: > 149 | Ratio IC50 [5]: > 149

COc1cc2c(cc1OC)-c1c(c3cc(O)ccc3n1C)C2=O
Ki [3]: 0.00019 µM

CNC(=O)c1ccc2occ(CCNC(=O)C3CC3)c2c1
IC50 [1]: 1.22 µM | IC50 [2]: > 10 µM | IC50 [3]: 0.041 µM | Ratio IC50 [4]: > 244 | Ratio IC50 [5]: > 29

COC(=O)c1ccc2occ(CCNC(=O)c3ccco3)c2c1
IC50 [1]: > 10 µM | IC50 [2]: > 10 µM | IC50 [3]: 0.053 µM | Ratio IC50 [4]: > 188 | Ratio IC50 [5]: > 188

COC(=O)Nc1ccc2[nH]cc(CCNC(C)=O)c2c1
IC50 [1]: 1 µM | IC50 [2]: 4 µM

COC(=O)Nc1ccc2occ(CCNC(=O)c3ccco3)c2c1
IC50 [1]: > 10 µM | IC50 [2]: > 10 µM | IC50 [3]: 0.056 µM | Ratio IC50 [4]: > 178 | Ratio IC50 [5]: > 178

CC(=O)NCCc1coc2ccc(NC(=O)C(F)(F)F)cc12
IC50 [1]: > 10 µM | IC50 [2]: 2 µM

CNC(=O)c1ccc2occ(CCNC(C)=O)c2c1
IC50 [1]: 0.189 µM | IC50 [2]: > 1 µM | IC50 [3]: 0.012 µM | Ratio IC50 [4]: > 83 | Ratio IC50 [5]: 16

COC(=O)c1ccc2occ(CCNC(C)=O)c2c1
IC50 [3]: 0.014 µM

COC(=O)Nc1ccc2occ(CCNC(=O)C(C)C)c2c1
IC50 [1]: 5.35 µM | IC50 [2]: 4.58 µM | IC50 [3]: 0.023 µM | Ratio IC50 [4]: 199 | Ratio IC50 [5]: 232

C=CCC(=O)NCCc1coc2ccc(NC(=O)OC)cc12
IC50 [1]: 2.69 µM | IC50 [2]: 0.56 µM | IC50 [3]: 0.011 µM | Ratio IC50 [4]: 51 | Ratio IC50 [5]: 244
